Assay: Physical and chemical properties: solubility
Format: physicochemical
Conditions: in water, methanol, DMSO
Method: The physical and chemical properties, hydrogen spectrum and mass spectrometry detection data of each compound are as follows:
It is calculated by a HR-ESI-MS [m/z 225.1406, calculated value being 225.1465] that a molecular weight of the compound is 202, a molecular formula is C12H14N2O, and a degree of unsaturation is 7.
It is calculated by the HR-ESI-MS [m/z 225.1406, calculated value being 225.1465] that a molecular weight of the compound is 202, a molecular formula is C12H14N2O, and a degree of unsaturation is 7.

Row | SMILES | solubility
1 | C[C@H]1N[C@@H](O)Cc2c1[nH]c1ccccc21 [Compound 2, Noni alkaloid D] | easily soluble in water, methanol, DMSO
2 | C[C@H]1N[C@H](O)Cc2c1[nH]c1ccccc21 [Compound 1, Noni alkaloid C] | easily soluble in water, methanol, DMSO
